≈ marks a conversion by molar mass, not a printed value. Entries after “also recorded” stand apart in the source; their conditions may differ. Like-named read-outs stand apart in the source and are kept apart here.
Legend:
[1] = Solubility test in water and pH 2.0 buffer (HPLC); assay type: physicochemical; details: for solubility in pH 2.0 buffer compared with Preparation Example 1 (in words): acidic conditions; for solubility: 25 °C, thermodynamic from solid; for Solubility (25° C., mg/mL) Medium: Water / Solubility (25° C., mg/mL) Medium: pH 2.0 buffer / solubility: 25° C.
Description: 2. Solubility (Water and pH 2.0 Buffer)
Detection Instrument: Agilent 1260 High Performance Liquid Chromatograph
Detection medium: purified water, pH 2.0 phosphoric acid-disodium hydrogen phosphate buffer
Preparation of control solution: it was taken that an appropriate amount of the referen ce substance of the compound of Formula 1, accurately weighed, dissolved completely by solven t and diluted to 100 μg/mL. 10 μL of the prepared solution was accurately measured and the conte nts of Compound 1 were determined by HPLC.
The salts obtained in Preparation Example 1, Examples 1 to 4 and 9 and Comparative Examples 1 to 2 were tested for solubility in water and pH 2.0 buffer.

[2] = Slurrying in organic solvents, crystalline form by XRPD; assay type: physicochemical; details: ~15 mg in 0.5 mL of solvents of Table 15, room temperature and 50° C.
Description: Note: The sample of Example 1 (˜15 mg) was added to 0.5 mL of the different solvents listed in Table 15, and slurried at room temperature and 50° C., and the filtered sample was subjected to X-ray powder diffraction. The crystalline form was consistent with that of the dihydrochloride salt obtained in Example 1.

human melanoma A375 = test: Pharmacodynamic experiment of human melanoma A375 nude mice xenograft tumor model; assay type: in vivo, nu/nu female nude mice; details: for Animal number (Survival/total) / Tumor weight / Inhibition rate %: once a day, 20 days; for Tumor weight / Inhibition rate %: Day 21; for Inhibition rate %: tumor weight
Description: Pharmacodynamic Experiment of Human Melanoma A375 Nude Mice Xenograft Tumor Model
A well-growing human melanoma A375 cell suspension was inoculated into the subcutaneous tissue of the forelimb axilla of nu/nu female nude mice in an inoculation volume of 0.1 mL containing approximately 1×10^7 tumor cells. When the tumor volume grew to 100 mm^3 or more, the mice with good tumor growth were selected, and the animals were evenly divided into 5 groups according to the tumor volume: a Vehicle group, a Vandetanib 12.5 mg/kg group, a Vandetanib 25 mg/kg group, an Example 1 sample 12.5 mg/kg group, and an Example 1 sample 25 mg/kg group, and there were 6 animals in each group. The Vehicle group was orally administered with distilled water, and the remaining groups were orally administered with the corresponding tested drugs in a dosing volume of 20 mL/kg, once a day, and continuously administered for 20 days. The animals were housed normally after administration, and the anti-tumor effect of the tested drugs was dynamically observed by using the method of measuring the diameter of the tumors. At the end of the experiment (Day 21), the animals were sacrificed, and the tumors, were stripped and weighed, and the tumor inhibition rate was calculated.

[3] = Solubility test in biological vehicles (FaSSIF, FeSSIF, SGF); assay type: physicochemical; details: for solubility at 0.5 h: 37 °C, thermodynamic from solid
Description: 9. Determination of Solubility in Biological Vehicles
The preparation procedures of the biological vehicles (SGF, FeSSIF and FaSSIF) used for solubility determination were shown in the following table:
Test method: a sample to be tested was added to a biological vehicles and prepared into a solution or suspension having a target concentration of 10 mg/mL. The resulting solution or suspension was shaken continuously at 200 rpm at 37° C. The suspension was filtered at 0.5 hour and the concentration of the compound in the filtrate was determined by using HPLC.
Solubility Test in Biological Vehicles
The samples of Example 1 and Example 10 (20 mg each) were weighed, and different biological vehicles (2 mL) were added threreto to perform the solubility test, and the results were shown in Table 11.

Solid stability test = assay type: physicochemical; details: 40° C./75% RH (open), 7 days
Description: The dihydrochloride salt of Example 1 and the dihydrochloride salt tetrahydrate of Example 2 and Example 10 were all placed under the condition of 40° C./75% RH (open) for 7 days to perform the stability test.

[4] = Solubility test in conventional organic solvents; assay type: physicochemical
Description: Solubility Test in Conventional Organic Solvents
The solubility test of the sample of Preparation Example 1 in different organic solvents was carried out by using the method in the Pharmacopoeia (Volume II, the general examples), and the solubility of the sample of Example 1 in different organic solvents was estimated using the gravimetric method, and the results were shown in Table 15.

Long-term stability test = assay type: physicochemical; details: for Purity (5 months) / Appearance / Crystalline form: 40 ± 2° C., 75% ± 5% RH, 5 months; for Appearance / Crystalline form: sealed with polyethylene film; for Purity (0 month): start of long-term stability test
Description: An appropriate amount of the salt samples obtained in Examples 1 to 4 and 9 were sealed with a polyethylene film and placed for 5 months under the conditions of 40±2° C. and 75%±5% RH, and a long-term test was carried out.

[5] = Mechanical stability test; assay type: physicochemical; details: mechanical grinding for 5 minutes
Description: Mechanical Stability Test
An appropriate amount of the dihydrochloride salt of Example 1 was subjected to mechanical grinding for 5 minutes, and X-ray powder diffraction was performed.

[6] = pH 2.0 phosphoric acid-disodium hydrogen phosphate buffer
[7] = Preparation Example 1 by Pharmacopoeia method, Example 1 estimated by gravimetric method
[8] = purified water, water, purified water, read-out: Solubility (25° C., mg/mL) Medium: Water
[9] = 0.5 h, 37° C., 200 rpm, target concentration 10 mg/mL, unit not given

SMILES: COc1cc2c(Nc3ccc(Br)cc3F)ncnc2cc1OCCCCN(C)C [Comparative Example 1]
- Solubility (25° C., mg/mL) Medium: Water ([1]; purified water): Jelly-like, solubility
- Solubility (25° C., mg/mL) Medium: Water ([1]; purified water, listed as monohydrochloride salt): jelly-like

SMILES: COc1cc2c(Nc3ccc(Br)cc3F)ncnc2cc1OCCCCN(C)C [Comparative Example 2]
- Solubility (25° C., mg/mL) Medium: Water ([1]; purified water): Jelly-like, solubility
- Solubility (25° C., mg/mL) Medium: Water ([1]; purified water, listed as malate salt): jelly-like

SMILES: COc1cc2c(Nc3ccc(Br)cc3F)ncnc2cc1OCCCCN(C)C [Example 1]
- crystalline form after slurrying in conventional organic solvents (XRPD) [2]: consistent; also recorded: stable
- Animal number (Survival/total) (human melanoma A375; 12.5 mg/kg oral): 6/6
- Tumor weight (human melanoma A375; 12.5 mg/kg oral): 1.77 ± 0.85 g
- Inhibition rate % (human melanoma A375; 12.5 mg/kg oral): 47.99%
- Animal number (Survival/total) (human melanoma A375; 25 mg/kg oral): 6/6
- Tumor weight (human melanoma A375; 25 mg/kg oral): 1.34 ± 1.15 g
- Inhibition rate % (human melanoma A375; 25 mg/kg oral): 60.52%
- effect on growth of tumors (in words) (human melanoma A375; 12.5 and 25 mg/kg oral, compared with the Vehicle group): significantly inhibit the growth of tumors
- Solubility (25° C., mg/mL) Medium: pH 2.0 buffer [1, 6]: 14.29 mg/mL
- Solubility (25° C., mg/mL) Medium: Water ([1]; purified water): 40.07 mg/mL (≈ 86.5 mM)
- solubility in pH 2.0 buffer compared with Preparation Example 1 (in words) [1]: slightly better
- water-solubility (in words) ([1]; water, listed as dihydrochloride salt): best of all samples
- solubility at 0.5 h ([3]; FaSSIF, pH 6.5, fassif, 0.5 h, 37° C., 200 rpm, target concentration 10 mg/mL, unit inferred, read-out: Solubility in FaSSIF (pH 6.5)): > 10 mg/mL
- solubility in biological vehicles with different pH (in words) ([3]; FaSSIF, FeSSIF, SGF): good solubility
- solubility at 0.5 h ([3]; FeSSIF, pH 5, fessif, 0.5 h, 37° C., 200 rpm, target concentration 10 mg/mL, unit inferred, read-out: Solubility in FeSSIF (pH 5.0)): 5.07 mg/mL (≈ 10.9 mM)
- solubility at 0.5 h ([3]; SGF, pH 1.2, simulated gastric fluid, 0.5 h, 37° C., 200 rpm, target concentration 10 mg/mL, unit inferred, read-out: Solubility in SGF (pH 1.2)): > 10 mg/mL
- Crystalline form (Solid stability test): Unchanged
- Purity (Solid stability test): 99.64%
- Solubility (mg/mL) in Acetone [4, 7]: <0.46 mg/mL
- Solubility (mg/mL) in Acetonitrile [4, 7]: <0.38 mg/mL
- Solubility (mg/mL) in Dichloromethane [4, 7]: <0.44 mg/mL
- Solubility (mg/mL) in Ethanol [4, 7]: ~0.55 mg/mL (≈ 1.19 mM)
- Solubility (mg/mL) in Ethyl acetate [4, 7]: <0.38 mg/mL
- Solubility (mg/mL) in Isopropanol [4, 7]: <0.40 mg/mL
- Solubility (mg/mL) in Tetrahydrofuran [4, 7]: <0.37 mg/mL
- solubility in the other seven commonly used organic solvents (in words) ([4]; all solvents of Table 15 except methanol): very poor solubility
- Purity (5 months) (Long-term stability test): 99.60%
- Appearance (Long-term stability test): White powder
- Crystalline form (Long-term stability test): Unchanged
- Purity (0 month) (Long-term stability test): 99.62%
- crystalline form after mechanical grinding (XRPD) [5]: not changed

SMILES: COc1cc2c(Nc3ccc(Br)cc3F)ncnc2cc1OCCCCN(C)C [Example 2]
- Solubility (25° C., mg/mL) Medium: pH 2.0 buffer [1, 6]: 7.69 mg/mL
- Solubility (25° C., mg/mL) Medium: Water ([1]; purified water): 34.32 mg/mL (≈ 74.1 mM)
- solubility in pH 2.0 buffer compared with Preparation Example 1 (in words) [1]: slightly lower
- Crystalline form (Solid stability test): Unchanged
- Purity (Solid stability test): 98.54%
- Purity (5 months) (Long-term stability test): 98.56%
- Appearance (Long-term stability test): White powder
- Crystalline form (Long-term stability test): Unchanged
- Purity (0 month) (Long-term stability test): 98.55%

SMILES: COc1cc2c(Nc3ccc(Br)cc3F)ncnc2cc1OCCCCN(C)C [Example 3]
- Solubility (25° C., mg/mL) Medium: pH 2.0 buffer [1, 6]: 5.00 mg/mL
- Solubility (25° C., mg/mL) Medium: Water ([1]; purified water): 10.91 mg/mL (≈ 23.5 mM)
- solubility in pH 2.0 buffer compared with Preparation Example 1 (in words) [1]: slightly lower
- Purity (5 months) (Long-term stability test): 98.84%
- Appearance (Long-term stability test): White powder
- Crystalline form (Long-term stability test): Unchanged
- Purity (0 month) (Long-term stability test): 98.83%

SMILES: COc1cc2c(Nc3ccc(Br)cc3F)ncnc2cc1OCCCCN(C)C.O=C(O)/C=C\C(=O)O [Example 4]
- solubility in pH 2.0 buffer compared with Preparation Example 1 (in words) [1]: slightly better
- solubility ([1]; pH 2.0 phosphoric acid-disodium hydrogen phosphate buffer, pH 2, aqueous buffer, pH 2.0 phosphoric acid-disodium hydrogen phosphate buffer, read-out: Solubility (25° C., mg/mL) Medium: pH 2.0 buffer): 12.5 mg/mL
- solubility [1, 8]: 13.7 mg/mL
- Purity (5 months) (Long-term stability test): 96.41%
- Appearance (Long-term stability test): White powder
- Crystalline form (Long-term stability test): Unchanged
- Purity (0 month) (Long-term stability test): 96.72%

SMILES: COc1cc2c(Nc3ccc(Br)cc3F)ncnc2cc1OCCCCN(C)C.O=C(O)C(=O)O [Example 9]
- solubility [1, 8]: 2.89 mg/mL
- Purity (5 months) (Long-term stability test): 99.34%
- Appearance (Long-term stability test): White powder
- Crystalline form (Long-term stability test): Unchanged
- Purity (0 month) (Long-term stability test): 99.38%

SMILES: COc1cc2c(Nc3ccc(Br)cc3F)ncnc2cc1OCCCCN(C)C [Example 10]
- Solubility in FeSSIF (pH 5.0) ([3]; 0.5 h, 37° C., 200 rpm, target concentration 10 mg/mL, unit inferred): 7.3 mg/mL
- Solubility in FaSSIF (pH 6.5) [3, 9]: solution, >10
- Solubility in SGF (pH 1.2) [3, 9]: solution, >10
- solubility in biological vehicles with different pH (in words) ([3]; FaSSIF, FeSSIF, SGF): good solubility
- Crystalline form (Solid stability test): Unchanged
- Purity (Solid stability test): 99.74%

SMILES: COc1cc2c(Nc3ccc(Br)cc3F)ncnc2cc1OCCCCN(C)C [Preparation Example 1, 4-(4-bromo-2-fluoroanilino)-6-methoxy-7-[(4-N,N-dimethylamino)butoxy]quinazoline]
- Solubility (25° C., mg/mL) Medium: Water ([1]; purified water): 0.036 mg/mL (≈ 0.0777 mM)
- water-solubility (in words) ([1]; water): very poor water-solubility
- Solubility (mg/mL) in Acetone [4, 7]: 44.04 mg/mL (≈ 95 mM)
- Solubility (mg/mL) in Acetonitrile [4, 7]: 10.66 mg/mL (≈ 23 mM)
- Solubility (mg/mL) in Dichloromethane [4, 7]: 30.49 mg/mL (≈ 65.8 mM)
- Solubility (mg/mL) in Ethanol [4, 7]: 205.2 mg/mL (≈ 443 mM)
- Solubility (mg/mL) in Ethyl acetate [4, 7]: 30.38 mg/mL (≈ 65.6 mM)
- Solubility (mg/mL) in Isopropanol [4, 7]: 51.05 mg/mL (≈ 110 mM)
- Solubility (mg/mL) in Methanol ([4]; Methanol, Preparation Example 1 by Pharmacopoeia method, Example 1 estimated by gravimetric method): >60 mg/mL
- Solubility (mg/mL) in Tetrahydrofuran [4, 7]: 201.4 mg/mL (≈ 435 mM)
- solubility ([4]; organic solvent or mixture, thermodynamic from solid, read-out: solubility in various conventional organic solvents (all)): > 10 mg/mL

SMILES: COc1cc2c(Nc3ccc(Br)cc3F)ncnc2cc1OCC1CCN(C)CC1 [Vandetanib, reference compound]
- Animal number (Survival/total) (human melanoma A375; 12.5 mg/kg oral): 6/6
- Tumor weight (human melanoma A375; 12.5 mg/kg oral): 2.89 ± 0.67 g
- Inhibition rate % (human melanoma A375; 12.5 mg/kg oral): 15.18%
- Animal number (Survival/total) (human melanoma A375; 25 mg/kg oral): 6/6
- Tumor weight (human melanoma A375; 25 mg/kg oral): 1.90 ± 0.93 g
- Inhibition rate % (human melanoma A375; 25 mg/kg oral): 44.15%

— US12637434B2, “Salt of arylaminoquinazoline-containing compound, and preparation method therefor and use thereof” (priority 2020, dated 2026)
